Legend:
[1] = test system: L858R/T790M EGFR mutant kinase; design: method as in PMID 27251290; conditions: cited from earlier work
[2] = mouse, in vivo
Experimental: We subsequently analyzed the single and combined effects of Abcb1 and Abcg2 deficiencies on EAI045 plasma pharmacokinetics and tissue accumulation using male WT, Abcg2^-/-, Abcb1a/1b^-/-, and Abcb1a/1b;Abcg2^-/- mice. As we wanted to assess tissue concentrations while plasma concentrations were still relatively high; we terminated this experiment at 30 min.
Mice (Mus musculus) were bred in the Netherlands Cancer Institute and housed and handled according to institutional guidelines complying with Dutch and EU legislation. Animals used were WT, Abcb1a/1b^-/- [39], Abcg2^-/- [40], Abcb1a/1b;Abcg2^-/- [41], Cyp3a^-/- [42], and Oatp1a/1b^-/- [43] mice of a >99% FVB/N strain background. Homozygous CYP3A4 humanized transgenic mice (Cyp3aXAV) were generated by cross-breeding of transgenic mice with stable human CYP3A4 expression in the liver or intestine, respectively, in a Cyp3a^-/- background. Proper functionality of the knockout and transgenic strains was monitored by regular testing with a variety of drug substrates. All the mice used were between 10 and 15 weeks of age. Animals were kept in a temperature-controlled environment with a 12 h light/12 h dark cycle and received a standard diet (Transbreed, SDS Diets, Technilab-BMI, The Netherlands) and acidified water ad libitum. Depending on the type of experiment, 5 or 6 mice were tested in each experimental group. All experimental animal protocols, including power calculations, were ethically assessed and designed under the nationally approved DEC/CCD project AVD301002016595 (approval date, 10 August 2016) and evaluated and approved by the institutional animal care and use committee (IACUC) of the Netherlands Cancer Institute.
EAI045 was dissolved in dimethyl sulfoxide (DMSO) at a concentration of […], and then diluted with a mixture of polysorbate 80/ethanol (1:1, v/v), and further diluted with 5% (w/v) glucose in water to yield a concentration of 2 mg/mL. Final concentrations for DMSO, polysorbate 80, ethanol, and glucose in the dosing solution were 5%, 2.5%, 2.5%, and 4.5% (v/v/v/w), respectively. Elacridar hydrochloride was dissolved in DMSO at a concentration of 53 mg/mL, then diluted with a mixture of polysorbate 80, ethanol, and water [20:13:67, (v/v/v)] to yield a concentration of 5 mg/mL elacridar. The final oral dose of elacridar was 50 mg/kg body weight. All dosing solutions were prepared freshly on the day of experiment.
To minimize variation in absorption, mice were fasted for about 3 h before EAI045 was administered by gavage into the stomach (n = 5–6), using a blunt-ended needle. EAI045 was administered orally at dose of 20 mg/kg. Elacridar was administered orally at a dose of 50 mg/kg, 3 h prior to oral EAI045 administration. For the 24- or 4-h experiments, tail vein blood samplings were performed at 5 min, 30 min, 1, 2, 4, and 8 h, or 5 min, 15 min, 30 min, 1, and 2 h time points after oral administration of EAI045, respectively, using microvettes containing heparin. For the 30 min experiments, blood samplings were performed at 5, 10, and 20 min from the tail vein. At the last time point (24 h, 4 h, or 30 min), mice were anesthetized with isoflurane and blood was collected by cardiac puncture. Then, mice were sacrificed by cervical dislocation and brain, liver, spleen, kidneys, lung, small intestine with content (SIWC), and testis were rapidly removed and weighed. Tissues were homogenized on ice in appropriate volumes of 2% (w/v) BSA. Blood samples were centrifuged at 9000× g for 6 min at 4 °C immediately after collection. All samples were stored at −30 °C until analysis.

[3] = 24 h pharmacokinetic pilot experiment in WT, Cyp3a-/- and Cyp3aXAV mice; type: in vivo, mice (Mus musculus)
Experimental: To determine whether EAI045 and CYP3A interact in vivo, we carried out a 24 h pharmacokinetic pilot experiment using oral EAI045 at 20 mg/kg in female WT, Cyp3a knockout (Cyp3a^-/-), and transgenic Cyp3aXAV mice (these are humanized Cyp3a^-/- mice that express the human CYP3A4 in liver and small intestine). The plasma exposure and tissue distribution of EAI045 and PIA were measured. The tmax in all strains was around 5–30 min. […] In contrast, relative to Cyp3a^-/- or WT mice, the AUC0–30min and Cmax were not changed in Cyp3aXAV mice (Supplemental Figure S8A–C). Similar results were obtained for PIA (Supplemental Figure S8D–F). While not plotted separately, the PIA/EAI045 AUC ratios were also hardly changed between the three mouse strains.
All samples were stored at −30 °C until analysis.
Differences were considered statistically significant when p < 0.05. Data are presented as mean ± SD.

Kp.SIWC% (SIWC%-to-plasma ratio), fold decrease [2]: 3.6 fold
SIWC%, fold decrease [2]: 2.1 fold
brain-to-plasma ratio, fold increase [2]: 5.2 fold
plasma AUC0–30min, fold increase [2]: 2.1 fold
plasma exposure of EAI045 over 30 min (AUC0–30min), fold lower ([3]; Cyp3a-/- mice than WT mice, 20 mg/kg oral): 1.6 fold
AUC0–30min and Cmax ([3]; Cyp3aXAV mice relative to Cyp3a-/- or WT mice, 20 mg/kg oral): not changed
tmax ([3]; female WT, Cyp3a-/- and Cyp3aXAV mice (all strains), EAI045 20 mg/kg oral): 5 to 30 min
SMILES: O=C(Nc1nccs1)C(c1cc(F)ccc1O)N1Cc2ccccc2C1=O (centres unmarked) [EAI045]
inhibition of the EGFR mutant relative to wild-type EGFR [1]: most selective inhibition
